Key:
[1] = target: T1, human CD73 (Homo sapiens, UniProt P21589); experiment: Inhibitor activity against CD73 in cell based assay (CD73 expressing CHO-K1 cells); conditions: CHO-K1 cells expressing human CD73, 150 μM AMP, 4 hours of incubation; read-out: CHO-K1 CELL_VARIANT: CD73 IC50
T1 construct: expressed in transfected cells
T1 sequence (P21589 27-549): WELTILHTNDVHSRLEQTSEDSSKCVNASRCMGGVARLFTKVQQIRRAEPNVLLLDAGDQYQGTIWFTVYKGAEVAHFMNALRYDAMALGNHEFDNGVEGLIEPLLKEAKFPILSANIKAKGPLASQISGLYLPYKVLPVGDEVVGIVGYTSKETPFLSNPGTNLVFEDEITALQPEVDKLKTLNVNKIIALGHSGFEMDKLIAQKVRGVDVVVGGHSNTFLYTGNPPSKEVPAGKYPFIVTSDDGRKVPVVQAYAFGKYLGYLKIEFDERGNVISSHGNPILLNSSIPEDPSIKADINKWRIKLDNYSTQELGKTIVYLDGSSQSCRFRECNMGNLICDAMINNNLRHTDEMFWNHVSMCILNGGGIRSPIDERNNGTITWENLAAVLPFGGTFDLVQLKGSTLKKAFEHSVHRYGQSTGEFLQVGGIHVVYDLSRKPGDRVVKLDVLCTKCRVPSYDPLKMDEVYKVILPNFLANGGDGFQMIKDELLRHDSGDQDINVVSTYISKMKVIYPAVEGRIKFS
Method: Determine Inhibitor Activity Against CD73 in Cell Based Assay
CD73 expressing CHO-K1 cell clones were generated upon stable transfection of a plasmid expressing human CD73 under the control of CMV promoter. Cells were selected in Ham's F-12K (Kaighn's) media supplemented with 10% fetal bovine serum and 1 mg/ml G418 at 37° C. in a humidified incubator supplied with 5% CO2. The assays were performed as follows. Cells were seeded in a 96 well plate in 50 μL of culture media at a density of 1×10^4 per well. Compound at a maximal concentration of 5 mM was serially diluted 1:3 in DMSO for a total of 8 point titration. A 2 μL aliquot of each dilution point was added to […] culture media and 25 µL was added to each well, providing 10 μM compound at the maximum concentration point. AMP was diluted in culture media and 25 μL was added to each well with a final concentration of 150 μM. 4 wells containing 0.2% DMSO treated cells and AMP served as high controls and 4 wells containing media only with 0.2% DMSO and AMP served as low controls. After 4 hours of incubation, 20 μL of the supernatant was transferred to a 384 well plate. AMP level in supernatant was measured indirectly by adding 5 μL of CellTiter-Glo® 2.0 reagent and 5 μL of ATP with a final concentration of 1 μM. Following incubation of plate at room temperature for 30 minutes, luminescent signal was read on a Tecan plate reader. The percentage inhibition at individual concentrations relative to high and low controls was calculated. The data were analyzed by using nonlinear regression to generate ICso values.

[2] = target: T2, Human CD73 (amino acid residues 27-549) (Homo sapiens, UniProt P21589); experiment: CD73 enzymatic assay (luciferase-based indirect assay, CellTiter-Glo); format: biochemical; conditions: 0.4 nM CD73, 150 μM AMP, 1 hour at room temperature
T2 construct: Human CD73 (amino acid residues 27-549); His tag (N); made in house; host or cells: E. coli
T2 sequence (P21589 27-549): T1 sequence (P21589 27-549)
Method: CD73 enzymatic activity was measured in a luciferase-based indirect assay using CellTiter-Glo® system from Promega. The luciferase reaction in the presence of ATP is inhibited by AMP, a primary substrate of CD73. Addition of CD73 enzyme to the reaction converts AMP to adenosine, and release the inhibition, producing a luminescent signal. Inhibition of CD73 leads to the decrease of this luminescent signal.
Human CD73 (amino acid residues 27-549) with N-Terminal His tag was purified in E. coli. All the assay components were prepared in 50 mM HEPEs buffer (pH 7.4) with 0.01% Tween-20. The CD73 enzymatic assay was performed using 0.4 nM CD73 and 150 μM AMP. 9.5 μL of CD73 protein and 9.5 μL of AMP were added to the wells of a 384 well plate containing lpL of various concentrations of test compound or DMSO vehicle and incubated for 1 hour at room temperature. 16 wells containing CD73, AMP and 5% DMSO served as high control. 16 wells containing AMP and 5% DMSO served as low control. Enzymatic reaction was stopped and AMP level was measured indirectly by adding 5 μL of CellTiter-Glo® 2.0 reagent and 5 μL of ATP with a final concentration of 1 μM. Following incubation of the plate at room temperature for 30 minutes, luminescent signal was read on a Tecan plate reader. The percentage inhibition at individual concentrations relative to high and low controls was calculated. The data were analyzed by using nonlinear regression to generate IC50 values.

Structure (SMILES)	IC50 [1]	IC50 [2]
Cc1nn(CC2(C)COC2)c(C)c1-c1ccnc(O[C@@H]2CCN(c3cnn(CCO)c(=O)c3Cl)C2)c1 [P-0112, (R)-4-chloro-5-(3-((4-(3,5-dimethyl-1-((3-methyloxetan-3-yl)methyl)-1H-pyrazol-4-yl)pyridin-2-yl)oxy)pyrrolidin-1-yl)-2-(2-hydroxyethyl)pyridazin-3(2H)-one]	0.001 to 10 µM	0.001 to 10 µM
Cc1nn(C)c(C)c1-c1cc(O[C@@H]2CCN(c3cn[nH]c(=O)c3Cl)C2)c(F)cn1 [P-0117, (R)-4-chloro-5-(3-((5-fluoro-2-(1,3,5-trimethyl-1H-pyrazol-4-yl)pyridin-4-yl)oxy)pyrrolidin-1-yl)pyridazin-3(2H)-one]	0.001 to 10 µM	0.001 to 10 µM
CC(C)(O)Cn1cc(-c2ccnc(O[C@@H]3CCN(c4cn[nH]c(=O)c4Cl)C3)c2)cn1 [P-0228, (R)-4-chloro-5-(3-((4-(1-(2-hydroxy-2-methylpropyl)-1H-pyrazol-4-yl)pyridin-2-yl)oxy)pyrrolidin-1-yl)pyridazin-3(2H)-one]	0.001 to 10 µM	0.001 to 10 µM
Cc1nn(CC(O)C(F)(F)F)c(C)c1-c1ccnc(O[C@@H]2CCN(c3cn[nH]c(=O)c3Cl)C2)c1 (stereo partly drawn) [P-0039, 4-chloro-5-((3R)-3-((4-(3,5-dimethyl-1-(3,3,3-trifluoro-2-hydroxypropyl)-1H-pyrazol-4-yl)pyridin-2-yl)oxy)pyrrolidin-1-yl)pyridazin-3(2H)-one]	0.001 to 10 µM	0.001 to 10 µM
O=c1[nH]ncc(N2CC[C@@H](Oc3cc(-c4ccc(S(=O)(=O)N5CCCC5)cc4)c(Cl)cn3)C2)c1Cl [P-0248, (R)-4-chloro-5-(3-((5-chloro-4-(4-(pyrrolidin-1-ylsulfonyl)phenyl)pyridin-2-yl)oxy)pyrrolidin-1-yl)pyridazin-3(2H)-one]	0.001 to 10 µM	0.001 to 10 µM
Cc1nn(CC(C)(C)O)c(C)c1-c1cc(O[C@@H]2CCN(c3cn[nH]c(=O)c3Cl)C2)ncn1 [P-0037, (R)-4-chloro-5-(3-((6-(1-(2-hydroxy-2-methylpropyl)-3,5-dimethyl-1H-pyrazol-4-yl)pyrimidin-4-yl)oxy)pyrrolidin-1-yl)pyridazin-3(2H)-one]	0.001 to 10 µM	0.001 to 10 µM
Cc1noc(C)c1-c1cncc(O[C@@H]2CCN(c3cn[nH]c(=O)c3Cl)C2)c1 [P-0162, (R)-4-chloro-5-(3-((5-(3,5-dimethylisoxazol-4-yl)pyridin-3-yl)oxy)pyrrolidin-1-yl)pyridazin-3(2H)-one]	0.001 to 10 µM	0.001 to 10 µM
Cc1nn(CC(C)(C)O)c(C)c1-c1ccnc(O[C@H]2CN(c3cnn(CCO)c(=O)c3Cl)C[C@@H]2F)c1 [P-0015, 4-chloro-5-((3S,4S)-3-fluoro-4-((4-(1-(2-hydroxy-2-methylpropyl)-3,5-dimethyl-1H-pyrazol-4-yl)pyridin-2-yl)oxy)pyrrolidin-1-yl)-2-(2-hydroxyethyl)pyridazin-3(2H)-one]	0.001 to 10 µM	0.001 to 10 µM
O=c1[nH]ncc(N2CC[C@@H](Oc3cc(-c4ccc(S(=O)(=O)NC5CC5)cc4)ccn3)C2)c1Cl [P-0247, (R)-4-(2-((1-(5-chloro-6-oxo-1,6-dihydropyridazin-4-yl)pyrrolidin-3-yl)oxy)pyridin-4-yl)-N-cyclopropylbenzenesulfonamide]	0.001 to 10 µM	0.001 to 10 µM
Cc1noc(C)c1-c1ccnc(O[C@@H]2CCN(c3cnn(CCCO)c(=O)c3Cl)C2)c1 [P-0090, (R)-4-chloro-5-(3-((4-(3,5-dimethylisoxazol-4-yl)pyridin-2-yl)oxy)pyrrolidin-1-yl)-2-(3-hydroxypropyl)pyridazin-3(2H)-one]	0.001 to 10 µM	0.001 to 10 µM
CCCS(=O)(=O)Nc1ccc(-c2ccnc(O[C@@H]3CCN(c4cn[nH]c(=O)c4Cl)C3)c2)c(F)c1 [P-0204, (R)-N-(4-(2-((1-(5-chloro-6-oxo-1,6-dihydropyridazin-4-yl)pyrrolidin-3-yl)oxy)pyridin-4-yl)-3-fluorophenyl)propane-1-sulfonamide]	0.001 to 10 µM	0.001 to 10 µM
O=c1[nH]ncc(N2CC[C@@H](Oc3cc(-c4c(F)cc(S(=O)(=O)NC5CC5)cc4F)ccn3)C2)c1Cl [P-0207, (R)-4-(2-((1-(5-chloro-6-oxo-1,6-dihydropyridazin-4-yl)pyrrolidin-3-yl)oxy)pyridin-4-yl)-N-cyclopropyl-3,5-difluorobenzenesulfonamide]	0.001 to 10 µM	0.001 to 10 µM
Cc1nn(C2COC2)c(C)c1-c1cc(O[C@H]2CN(c3cnn(CCO)c(=O)c3Cl)C[C@@H]2F)ncc1F [P-0007, 4-chloro-5-((3S,4S)-3-((4-(3,5-dimethyl-1-(oxetan-3-yl)-1H-pyrazol-4-yl)-5-fluoropyridin-2-yl)oxy)-4-fluoropyrrolidin-1-yl)-2-(2-hydroxyethyl)pyridazin-3(2H)-one]	0.001 to 10 µM	0.001 to 10 µM
Cc1noc(C)c1-c1ccnc(O[C@@H]2CCN(c3cnn(CCO)c(=O)c3Cl)C2)c1 [P-0176, (R)-4-chloro-5-(3-((4-(3,5-dimethylisoxazol-4-yl)pyridin-2-yl)oxy)pyrrolidin-1-yl)-2-(2-hydroxyethyl)pyridazin-3(2H)-one]	0.001 to 10 µM	0.001 to 10 µM
NC1CC=C(c2ccnc(O[C@@H]3CCN(c4cn[nH]c(=O)c4Cl)C3)c2)CC1 (stereo partly drawn) [P-0067, 5-((3R)-3-((4-(4-aminocyclohex-1-en-1-yl)pyridin-2-yl)oxy)pyrrolidin-1-yl)-4-chloropyridazin-3(2H)-one]	0.001 to 10 µM	0.001 to 10 µM
CC1CCCN1c1ccnc(O[C@@H]2CCN(c3cn[nH]c(=O)c3Cl)C2)c1 (stereo partly drawn) [P-0093, 4-chloro-5-((3R)-3-((4-(2-methylpyrrolidin-1-yl)pyridin-2-yl)oxy)pyrrolidin-1-yl)pyridazin-3(2H)-one]	0.001 to 10 µM	0.001 to 10 µM
N#CC1CCN(c2ccnc(O[C@@H]3CCN(c4cn[nH]c(=O)c4Cl)C3)c2)CC1 [P-0074, (R)-1-(2-((1-(5-chloro-6-oxo-1,6-dihydropyridazin-4-yl)pyrrolidin-3-yl)oxy)pyridin-4-yl)piperidine-4-carbonitrile]	0.001 to 10 µM	0.001 to 10 µM
COc1cc(S(=O)(=O)NC2CC2)ccc1-c1ccnc(O[C@@H]2CCN(c3cn[nH]c(=O)c3Cl)C2)c1 [P-0227, (R)-4-(2-((1-(5-chloro-6-oxo-1,6-dihydropyridazin-4-yl)pyrrolidin-3-yl)oxy)pyridin-4-yl)-N-cyclopropyl-3-methoxybenzenesulfonamide]	0.001 to 10 µM	0.001 to 10 µM
Cc1noc(C)c1-c1cc(O[C@@H]2CCN(c3cn[nH]c(=O)c3Cl)C2)c(F)cn1 [P-0118, (R)-4-chloro-5-(3-((2-(3,5-dimethylisoxazol-4-yl)-5-fluoropyridin-4-yl)oxy)pyrrolidin-1-yl)pyridazin-3(2H)-one]	0.001 to 10 µM	0.001 to 10 µM
O=C(NC1CCOCC1)c1ccnc(O[C@@H]2CCN(c3cn[nH]c(=O)c3Cl)C2)c1 [P-0025, (R)-2-((1-(5-chloro-6-oxo-1,6-dihydropyridazin-4-yl)pyrrolidin-3-yl)oxy)-N-(tetrahydro-2H-pyran-4-yl)isonicotinamide]	0.001 to 10 µM	0.001 to 10 µM
